Data reported in US12448362B2, “Fluorine-containing pyrimidine compound and fluorine-containing pyrimidinone compound” (UNIMATEC CO., LTD., priority 2020, dated 2025).

Tested on: cucumber powdery mildew
Experiment: Evaluation test for cucumber powdery mildew (cucumber leaf disc, lesion area after 14 days)
Assay type: in vivo
Conditions: 500 ppm in acetone; cucumber leaf disc sprayed with spore suspension; 25° C., 12 hours illumination; lesion area after 14 days vs untreated section
Protocol: Each of the fluorine-containing pyrimidine compounds prepared in Examples 32 and 36 was dissolved in acetone and diluted to a concentration of 500 ppm. Subsequently, a cucumber leaf disc (20 mm in diameter) was put into the diluted acetone solution and completely wetted, and then the cucumber leaf disc was placed so that the back surface of the cucumber leaf disc was in contact with a plain agar medium that had been prepared separately, and air-dried. After air-drying, a spore suspension of the cucumber powdery mildew was uniformly sprayed on the cucumber leaf disc and air-dried. The cucumber leaf disc was then left in a thermostat (25° C., 12 hours illumination), and after 14 days, the area of lesions was examined to calculate the control value. Note that the control value was calculated according to the following formula. In the following formula, “untreated” means that a cucumber leaf disc was wetted with only acetone as a test solution, and “untreated section” means a section of the wetted cucumber leaf disc. [formula]

SMILES | Control value
Cc1ccc(Nc2nc(-c3ccccn3)nc(Cl)c2C(F)(F)F)cc1 [Example 32, 6-chloro-N-(4-methylphenyl)-2-(2-pyridyl)-5-(trifluoromethyl)-4-pyrimidinamine] | 57.1
Cc1ccc(Nc2nc(-c3cccnc3)nc(Cl)c2C(F)(F)F)cc1 [Example 36, 6-chloro-N-(4-methylphenyl)-2-(3-pyridyl)-5-(trifluoromethyl)-4-pyrimidinamine] | 67.9
